Publication PMC10408569, “Recruitment of hexahydroquinoline as anticancer scaffold targeting inhibition of wild and mutants EGFR (EGFR^WT, EGFR^T790M, and EGFR^L858R)” (Journal of Enzyme Inhibition and Medicinal Chemistry, 2023)

Key:
[1] = system: HS 578T; assay: NCI-60 anticancer screening (SRB); format: cell-based; conditions: Homo sapiens; HS 578T, breast cancer; one dose 10 μM; read-out: Growth Inhibition Percentage (GI %)
[2] = system: HOP-62; assay: NCI-60 anticancer screening (SRB); format: cell-based; conditions: Homo sapiens; HOP-62, NSC lung cancer; one dose 10 μM; read-out: Growth Inhibition Percentage (GI %)
[3] = system: KM 12; assay: NCI-60 anticancer screening (SRB); format: cell-based; conditions: Homo sapiens, KM12; KM 12, colon cancer; one dose 10 μM; read-out: Growth Inhibition Percentage (GI %)
[4] = system: TK-10; assay: NCI-60 anticancer screening (SRB); format: cell-based; conditions: Homo sapiens; TK-10, renal cancer; one dose 10 μM; read-out: Growth Inhibition Percentage (GI %)
[5] = system: COLO 205; assay: NCI-60 anticancer screening (SRB); format: cell-based; conditions: Homo sapiens; COLO 205, colon cancer; one dose 10 μM; read-out: Growth Inhibition Percentage (GI %)
[6] = system: MDA-MB-231; assay: NCI-60 anticancer screening (SRB); format: cell-based; conditions: Homo sapiens; MDA-MB-231, breast cancer; one dose 10 μM; read-out: Growth Inhibition Percentage (GI %)
[7] = system: NCI/ADR-RES; assay: NCI-60 anticancer screening (SRB); format: cell-based; conditions: Homo sapiens, ovarian cancer, one dose 10 μM, read-out: Growth Inhibition Percentage (GI %)
[8] = system: HCC-2998; assay: NCI-60 anticancer screening (SRB); format: cell-based; conditions: Homo sapiens; HCC-2998, colon cancer; one dose 10 μM; read-out: Growth Inhibition Percentage (GI %)
[9] = system: OVCAR-4; assay: NCI-60 anticancer screening (SRB); format: cell-based; conditions: Homo sapiens; OVCAR-4, ovarian cancer; one dose 10 μM; read-out: Growth Inhibition Percentage (GI %)
[10] = system: MOLT-4; assay: NCI-60 anticancer screening (SRB); format: cell-based; conditions: Homo sapiens; MOLT-4, leukemia; one dose 10 μM; read-out: Growth Inhibition Percentage (GI %)
[11] = system: SN 12C; assay: NCI-60 anticancer screening (SRB); format: cell-based; conditions: Homo sapiens, SN12C; SN 12C, renal cancer; one dose 10 μM; read-out: Growth Inhibition Percentage (GI %)
[12] = system: NCI-H460; assay: NCI-60 anticancer screening (SRB); format: cell-based; conditions: Homo sapiens; NCI-H460, NSC lung cancer; one dose 10 μM; read-out: Growth Inhibition Percentage (GI %)
[13] = system: HT29; assay: NCI-60 anticancer screening (SRB); format: cell-based; conditions: Homo sapiens, HT-29; HT29, colon cancer; one dose 10 μM; read-out: Growth Inhibition Percentage (GI %)
[14] = system: T-47D; assay: NCI-60 anticancer screening (SRB); format: cell-based; conditions: Homo sapiens, T47D, breast cancer, one dose 10 μM, read-out: Growth Inhibition Percentage (GI %)
[15] = system: 786-0; assay: NCI-60 anticancer screening (SRB); format: cell-based; conditions: Homo sapiens; 786-0, renal cancer; one dose 10 μM; read-out: Growth Inhibition Percentage (GI %)
[16] = system: HL-60(TB); assay: NCI-60 anticancer screening (SRB); format: cell-based; conditions: Homo sapiens, leukemia, one dose 10 μM, read-out: Growth Inhibition Percentage (GI %)
[17] = system: BT-549; assay: NCI-60 anticancer screening (SRB); format: cell-based; conditions: Homo sapiens; BT-549, breast cancer; one dose 10 μM; read-out: Growth Inhibition Percentage (GI %)
[18] = system: UACC-62; assay: NCI-60 anticancer screening (SRB); format: cell-based; conditions: Homo sapiens; UACC-62, melanoma; one dose 10 μM; read-out: Growth Inhibition Percentage (GI %)
[19] = system: M14; assay: NCI-60 anticancer screening (SRB); format: cell-based; conditions: Homo sapiens; M14, melanoma; one dose 10 μM; read-out: Growth Inhibition Percentage (GI %)
[20] = system: NCI-H522; assay: NCI-60 anticancer screening (SRB); format: cell-based; conditions: Homo sapiens; NCI-H522, NSC lung cancer; one dose 10 μM; read-out: Growth Inhibition Percentage (GI %)
[21] = system: OVCAR-3; assay: NCI-60 anticancer screening (SRB); format: cell-based; conditions: Homo sapiens; OVCAR-3, ovarian cancer; one dose 10 μM; read-out: Growth Inhibition Percentage (GI %)
[22] = system: NCI-H322M; assay: NCI-60 anticancer screening (SRB); format: cell-based; conditions: Homo sapiens, NSC lung cancer, one dose 10 μM, read-out: Growth Inhibition Percentage (GI %)
[23] = system: SW-620; assay: NCI-60 anticancer screening (SRB); format: cell-based; conditions: Homo sapiens; SW-620, colon cancer; one dose 10 μM; read-out: Growth Inhibition Percentage (GI %)
[24] = system: UO-31; assay: NCI-60 anticancer screening (SRB); format: cell-based; conditions: Homo sapiens; UO-31, renal cancer; one dose 10 μM; read-out: Growth Inhibition Percentage (GI %)
[25] = system: SK-MEL-5; assay: NCI-60 anticancer screening (SRB); format: cell-based; conditions: Homo sapiens; SK-MEL-5, melanoma; one dose 10 μM; read-out: Growth Inhibition Percentage (GI %)
[26] = system: LOX IMVI; assay: NCI-60 anticancer screening (SRB); format: cell-based; conditions: Homo sapiens, melanoma, one dose 10 μM, read-out: Growth Inhibition Percentage (GI %)
[27] = system: SK-MEL-2; assay: NCI-60 anticancer screening (SRB); format: cell-based; conditions: Homo sapiens; SK-MEL-2, melanoma; one dose 10 μM; read-out: Growth Inhibition Percentage (GI %)
[28] = system: CAKI-1; assay: NCI-60 anticancer screening (SRB); format: cell-based; conditions: Homo sapiens; CAKI-1, renal cancer; one dose 10 μM; read-out: Growth Inhibition Percentage (GI %)
[29] = system: NCI 60 cancer cell lines; assay: NCI-60 anticancer screening (SRB), whole panel; format: cell-based, human; conditions: mean across the NCI-60 panel; one dose 10 μM
[30] = system: RXF 393; assay: NCI-60 anticancer screening (SRB); format: cell-based; conditions: Homo sapiens; RXF 393, renal cancer; one dose 10 μM; read-out: Growth Inhibition Percentage (GI %)
[31] = system: MCF7; assay: NCI-60 anticancer screening (SRB); format: cell-based; conditions: Homo sapiens; MCF7, breast cancer; one dose 10 μM; read-out: Growth Inhibition Percentage (GI %)
[32] = system: A498; assay: NCI-60 anticancer screening (SRB); format: cell-based; conditions: Homo sapiens; A498, renal cancer; one dose 10 μM; read-out: Growth Inhibition Percentage (GI %)

| SMILES | inhibition at 10 µM [1] | inhibition at 10 µM [2] | inhibition at 10 µM [3] | inhibition at 10 µM [4] | inhibition at 10 µM [5] | inhibition at 10 µM [6] | inhibition at 10 µM [7] | inhibition at 10 µM [8] | inhibition at 10 µM [9] | inhibition at 10 µM [10] | inhibition at 10 µM [11] | inhibition at 10 µM [12] | inhibition at 10 µM [13] | inhibition at 10 µM [14] | inhibition at 10 µM [15] | inhibition at 10 µM [16] | inhibition at 10 µM [17] | inhibition at 10 µM [18] | inhibition at 10 µM [19] | inhibition at 10 µM [20] | also measured |
| --- | --- | --- | --- | --- | --- | --- | --- | --- | --- | --- | --- | --- | --- | --- | --- | --- | --- | --- | --- | --- | --- |
| CCOC(=O)C1=C(N)N(c2ccc(Cl)cc2)C2=C(C(=O)CC(C)(C)C2)C1c1ccc([N+](=O)[O-])cc1 (racemic) [8k, (±)-Ethyl2-amino-1–(4-chlorophenyl)-7,7-dimethyl-4–(4-nitrophenyl)-5-oxo-1,4,5,6,7,8-hexahydroquinoline-3-carboxylate] | < 10% | < 10% | 12% | < 10% | < 10% | < 10% | 16% | < 10% | < 10% | 27% | < 10% | < 10% | < 10% | 27% | < 10% | 22% | < 10% | 29% | < 10% | 27% | inhibition at 10 µM [21]: < 10%; inhibition at 10 µM [22]: < 10%; inhibition at 10 µM [23]: < 10%; inhibition at 10 µM [24]: 32%; inhibition at 10 µM [25]: < 10%; inhibition at 10 µM [26]: 21%; inhibition at 10 µM [27]: 19%; melting point: 198 to 200 °C; inhibition at 10 µM [28]: 11%; GI % mean [29]: - ((-) = GI % mean less than 10); inhibition at 10 µM [30]: < 10%; inhibition at 10 µM [31]: 19%; inhibition at 10 µM [32]: < 10% |
| CCOC(=O)C1=C(N)N(c2ccc(C)cc2)C2=C(C(=O)CC(C)(C)C2)C1c1ccc([N+](=O)[O-])cc1 (racemic) [8j, (±)-Ethyl 2-amino-7,7-dimethyl-1–(4-methylphenyl)-4–(4-nitrophenyl)-5-oxo-1,4,5,6,7,8-hexahydroquinoline-3-carboxylate] | < 10% | < 10% | < 10% | < 10% | < 10% | < 10% | < 10% | < 10% | < 10% | < 10% | < 10% | < 10% | < 10% | < 10% | < 10% | < 10% | < 10% | 13% | < 10% | < 10% | inhibition at 10 µM [21]: < 10%; inhibition at 10 µM [22]: < 10%; inhibition at 10 µM [23]: < 10%; inhibition at 10 µM [24]: < 10%; inhibition at 10 µM [25]: < 10%; inhibition at 10 µM [26]: < 10%; inhibition at 10 µM [27]: < 10%; melting point: 270 to 272 °C; inhibition at 10 µM [28]: < 10%; GI % mean [29]: - ((-) = GI % mean less than 10); inhibition at 10 µM [30]: < 10%; inhibition at 10 µM [31]: < 10%; inhibition at 10 µM [32]: < 10% |
| CCOC(=O)C1=C(N)N(c2ccc(Cl)cc2)C2=C(C(=O)CC(C)(C)C2)C1c1ccccn1 (racemic) [12c, (±)-Ethyl 2-amino-1–(4-chlorophenyl)-7,7-dimethyl-5-oxo-4-(pyridine-2-yl)-1,4,5,6,7,8-hexahydroquinoline-3-carboxylate] | < 10% | < 10% | < 10% | < 10% | < 10% | < 10% | < 10% | < 10% | < 10% | < 10% | < 10% | < 10% | 22% | < 10% | < 10% | < 10% | < 10% | 25% | < 10% | 11% | inhibition at 10 µM [21]: < 10%; inhibition at 10 µM [22]: < 10%; inhibition at 10 µM [23]: < 10%; inhibition at 10 µM [24]: 23%; inhibition at 10 µM [25]: 13%; inhibition at 10 µM [26]: < 10%; inhibition at 10 µM [27]: < 10%; melting point: 256 to 258 °C; inhibition at 10 µM [28]: 11%; GI % mean [29]: - ((-) = GI % mean less than 10); inhibition at 10 µM [30]: < 10%; inhibition at 10 µM [31]: 11%; inhibition at 10 µM [32]: < 10% |
| CCOC(=O)C1=C(N)N(c2ccc(Cl)cc2)C2=C(C(=O)CC(C)(C)C2)C1c1ccc(OC)cc1 (racemic) [8h, (±)-Ethyl 2-amino-1–(4-chlorophenyl)-4–(4-methoxyphenyl)-7,7-dimethyl-5-oxo-1,4,5,6,7,8-hexahydroquinoline-3-carboxylate] | < 10% | < 10% | < 10% | < 10% | < 10% | < 10% | < 10% | < 10% | < 10% | < 10% | < 10% | < 10% | < 10% | < 10% | < 10% | < 10% | 25% | < 10% | < 10% | < 10% | inhibition at 10 µM [21]: < 10%; inhibition at 10 µM [22]: < 10%; inhibition at 10 µM [23]: < 10%; inhibition at 10 µM [24]: < 10%; inhibition at 10 µM [25]: < 10%; inhibition at 10 µM [26]: < 10%; inhibition at 10 µM [27]: < 10%; melting point: 255 to 257 °C; inhibition at 10 µM [28]: < 10%; GI % mean [29]: - ((-) = GI % mean less than 10); inhibition at 10 µM [30]: < 10%; inhibition at 10 µM [31]: < 10%; inhibition at 10 µM [32]: < 10% |
